Data set [1] concerns Acinetobacter baumannii (PDR) Tulane isolate. The data set can be described thus: microbe, parasite or virus in culture. The conditions noted are these: read-out: MIC, AB (PDR)Tulane.
For data set [2], the system named is MRSA SAP400, a USA400 strain. Nature of the data set: microbe, parasite or virus in culture. Conditions: Staphylococcus aureus, read-out: MIC, MRSA USA400. The method, then: (§1) Subcultures, prepared by inoculating 25 mL of fresh tryptic soy broth (TSB) with 200 μL of an overnight culture, were grown to log phase (OD600 = 0.3–0.6), after which cell counts were determined by measuring the OD600 (1.0 = 5 × 10^8 CFU/mL for E. coli, 4 × 10^8 CFU/mL for K. pneumoniae, 4 × 10^8 CFU/mL for P. aeruginosa, 1.5 × 10^8 CFU/mL for S. aureus). Bacterial cells were diluted to appropriate concentrations in TSB. We used the following clinical bacterial isolates of Klebsiella pneumoniae in this study: Strains KP6, KP46, NDM-1, KP396, and KP398 have been previously described.[43] ST58 strains C2, C3, and I2 are also described.[41] […] MRSA, […] S. aureus strain, is SAP400, a USA400 strain of community-acquired MRSA. […] The second independent set of K. pneumoniae isolates are previously described.[20],[21]
(§2) The antibiotics were serially diluted by a factor of 2:3 horizontally across 96-well plates from Corning, 25 μL per well. One column was reserved for controls. For the assays performed in the presence of RBC, type O+ human RBCs at 0 or 2.5 × 10^9 cells/mL were added in 50 μL aliquots to all wells. Following a 30-min incubation, 50 μL of TSB, inoculated with 5 × 10^5 CFU/mL, was added to all wells, and plates were incubated overnight at 37 °C. Following overnight incubation at 37 °C, the OD600 was measured (values of less than 0.1 were considered sterilized). To assess bacterial growth in the assays with RBC, the OD600 was measured after a second-day inoculation with 10 μL of solution from the original plate added to 100 μL of sterile TSB followed by overnight incubation.
(§3) Experiments were repeated four to eight times independently, with pairs of replicate measurements on each 96-well plate. After overnight growth, optical densities were measured at 660 nm and the sterilized wells were identified by having O.D. < 0.08. Nonsterilized wells were nearly opaque with OD > 0.6. For each measurement, we recorded the largest dilution that sterilized the bacteria. Statistics are done on dilution numbers, rather than calculated concentrations, because only the former have normal distributions.

Data set [3] relates to Pseudomonas aeruginosa clinical isolates. Nature of the data set: microbe, parasite or virus in culture. Conditions: Pseudomonas aeruginosa. The method, then:
as §1, §2, §3

For data set [4], the system named is K. pneumoniae clinical isolates. Nature of the data set: microbe, parasite or virus in culture. The conditions noted are these: Klebsiella pneumoniae. The method, then: as §1
The antibiotics were serially diluted by a factor of 2:3 horizontally across 96-well plates from Corning, 25 μL per well. One column was reserved for controls. For the assays performed in the presence of RBC, type O+ human RBCs at 0 or 2.5 × 10^9 cells/mL were added in 50 μL aliquots to all wells. […] To assess bacterial growth in the assays with RBC, the OD600 was measured after a second-day inoculation with 10 μL of solution from the original plate added to 100 μL of sterile TSB followed by overnight incubation.
as §3

The subject of another data set is human RBCs. Type of data set: cell-based. The protocol:
Human O+ erythrocytes were obtained from Interstate Blood Bank, Inc. Red blood cells were subjected to four or more cycles of centrifugation at 1000g with resuspension in fresh PBS. Following the final wash step, the supernatant was clear and colorless. RBC concentration was determined using a standard hemocytometer.
Peptide was serially diluted in PBS starting at a concentration of 100 μM. The final volume of peptide in each well was 50 μL. To each well, 50 μL of RBCs in PBS at 2 × 10^8 cells/mL was added. As a positive lysis control, 1% Triton was used. The mixtures were incubated at 37 °C for 1 h, after which they were centrifuged at 1000g for 5 min. After centrifugation, 10 μL of supernatant was transferred to 90 μL of DI H2O in a fresh 96-well plate. The absorbance of released hemoglobin at 410 nm was recorded, and the fractional hemolysis was calculated based on the 100 and 0% lysis controls. At least three independent experiments were performed. Results shown are averages.

Data set [5] relates to WI-38 human fibroblast cells. The data set can be described thus: in vitro. Type of data set: cell-based. The protocol:
The day before cytotoxicity experiments, the 10,000 cells/well were plated in a 96-well tissue-culture plate. […] To perform the cytotoxicity assay, media was removed from the wells and replaced with peptide solutions. […] The plate was read for SYTOX fluorescence every 5 min for an hour with an excitation wavelength of 504 nm and an emission wavelength of 523 nm. Percent cytotoxicity was calculated at 60 min using the 100 and 0% lysis controls. At least three independent experiments were averaged.

Data set [6] deals with 14 clinical isolates of resistant bacterial strains. The data set can be described thus: Broth dilution, summary over the 14 clinical isolates of the first set. Conditions: statement for all 14 clinical isolates of the first set; read-out: MIC, all isolates (completely resistant). Type of data set: cell-based. The method, then: In Figure 4B, we plot the fraction of isolates sterilized as functions of antibiotic concentration.
as §1, §2

[7] abbreviates: ATCC33495, read-out: MIC, KP ATCC 33495.

SMILES strings stand for the structures. pEC50: −log10 of the molar value. Values after ≈ are worked out from the molar mass of the structure shown. Where two headings read alike, the source gives them in different places. Where a SMILES comes first, the peptide text is derived from it. [ ]: non-standard residue; d: D form. d(hArg) = N=C(N)NCCCC[C@@H](N)C(=O)O

With `C[C@@H](O)[C@H]1C(=O)N2C(C(=O)O)=C(S[C@@H]3CN[C@H](C(=O)N(C)C)C3)[C@H](C)[C@H]12` [MEM, meropenem], the MIC in data set [1] was over 150 µM; in data set [2], over 150 µM; in data set [3] (read-out: MIC, PA(mucoid)), 13.3 µM (≈ 5.1 µg/mL); in data set [3] (read-out: MIC, PA(non-mucoid)) it was 4 µM (≈ 1.53 µg/mL); in data set [4] (setting [7]), 0.2 µM (≈ 0.0767 µg/mL); in data set [4] (read-out: MIC, KP 6), 0.2 µM (≈ 0.0767 µg/mL). The MIC is 0.4 µM (≈ 0.153 µg/mL) in data set [4] (read-out: MIC, KP 46); 0.2 µM (≈ 0.0767 µg/mL) in data set [4] (read-out: MIC, KP 398); over 150 µM in data set [4] (read-out: MIC, KP 2146NDM-1); 108 µM (≈ 41.4 µg/mL) in data set [4] (read-out: MIC, KP (CRE)); over 150 µM in data set [4] (read-out: MIC, KP ST258 C2); over 150 µM in data set [4] (read-out: MIC, KP ST258 C3). Further, the MIC was over 150 µM in data set [4] (read-out: MIC, KP ST258 I2) and 0.3 µM (≈ 0.115 µg/mL) in data set [4] (read-out: MIC, KP ST396).
Turning to `NC[C@H]1O[C@H](O[C@H]2[C@H](O)[C@@H](O[C@H]3O[C@H](CO)[C@@H](O)[C@H](N)[C@H]3O)[C@H](N)C[C@@H]2N)[C@H](N)C[C@@H]1O` [TOB, tobramycin], the MIC in data set [1] was over 150 µM; in data set [2], over 150 µM; in data set [3] (read-out: MIC, PA(mucoid)), 4.2 µM (≈ 1.96 µg/mL); in data set [3] (read-out: MIC, PA(non-mucoid)), 5.9 µM (≈ 2.76 µg/mL); in data set [4] (setting [7]), 7.5 µM (≈ 3.51 µg/mL); in data set [4] (read-out: MIC, KP 6) it was over 150 µM. Besides, the MIC is 3.5 µM (≈ 1.64 µg/mL) in data set [4] (read-out: MIC, KP 46); 6.9 µM (≈ 3.23 µg/mL) in data set [4] (read-out: MIC, KP 398); over 150 µM in data set [4] (read-out: MIC, KP 2146NDM-1); over 150 µM in data set [4] (read-out: MIC, KP (CRE)); over 150 µM in data set [4] (read-out: MIC, KP ST258 C2); over 150 µM in data set [4] (read-out: MIC, KP ST258 C3). In addition, the MIC was over 150 µM in data set [4] (read-out: MIC, KP ST258 I2) and 4.6 µM (≈ 2.15 µg/mL) in data set [4] (read-out: MIC, KP ST396).
Regarding `O=C(O)c1cn(C2CC2)c2cc(N3CCNCC3)c(F)cc2c1=O` [CIPRO, ciprofloxacin], the MIC in data set [1] was over 150 µM; in data set [2], 0.8 µM (≈ 0.265 µg/mL).
With `CC(C)C[C@@H](NC(=O)CNC(=O)[C@@H](CCCNC(=N)N)NC(=O)[C@@H](CCCNC(=N)N)NC(=O)[C@@H](C)NC(=O)[C@@H](Cc1c[nH]c2ccccc12)NC(=O)[C@@H](CCCNC(=N)N)NC(=O)[C@H](N)CCCNC(=N)N)C(=O)N[C@H](C)C(=O)N[C@H](Cc1ccccc1)C(=O)N[C@H](C)C(=O)N[C@H](Cc1ccccc1)C(=O)N[C@H](CCCNC(=N)N)C(=O)N[C@H](CCCNC(=N)N)C(N)=O` [D-CONGA-G7] (H-[dR][dR][dW][dA][dR][dR]G[dL][dA][dF][dA][dF][dR][dR]-NH2; N-terminus and C-terminus assumed), the “Hemolysis at 100 μM (fractional hemolysis)” value in the data set with human RBCs worked out at 0.07. The compound further showed a negative-log EC50 (pEC50) in data set [5] of 3.63.
On to `CO/N=C(\C(=O)N[C@@H]1C(=O)N2C(C(=O)O)=C(CSc3nc(=O)c(=O)[nH]n3C)CS[C@H]12)c1csc(N)n1` [CRO, ceftriaxone], for which the MIC in data set [1] was over 150 µM; in data set [2], over 150 µM; in data set [3] (read-out: MIC, PA(mucoid)), 137 µM (≈ 76 µg/mL); in data set [3] (read-out: MIC, PA(non-mucoid)), 89 µM (≈ 49.4 µg/mL); in data set [4] (setting [7]), 0.3 µM (≈ 0.166 µg/mL); in data set [4] (read-out: MIC, KP 6) it was over 150 µM. Also, the MIC was 1.9 µM (≈ 1.05 µg/mL) in data set [4] (read-out: MIC, KP 46); 0.2 µM (≈ 0.111 µg/mL) in data set [4] (read-out: MIC, KP 398); over 150 µM in data set [4] (read-out: MIC, KP 2146NDM-1); 45 µM (≈ 25 µg/mL) in data set [4] (read-out: MIC, KP (CRE)); over 150 µM in data set [4] (read-out: MIC, KP ST258 C2); over 150 µM in data set [4] (read-out: MIC, KP ST258 C3). The MIC is over 150 µM in data set [4] (read-out: MIC, KP ST258 I2) and 1.9 µM (≈ 1.05 µg/mL) in data set [4] (read-out: MIC, KP ST396).
Turning to `CC(C)C[C@@H](NC(=O)[C@@H](CCCNC(=N)N)NC(=O)[C@@H](CCCNC(=N)N)NC(=O)[C@@H](C)NC(=O)[C@@H](Cc1c[nH]c2ccccc12)NC(=O)[C@@H](CCCNC(=N)N)NC(=O)[C@H](N)CCCNC(=N)N)C(=O)N[C@H](C)C(=O)N[C@H](Cc1ccccc1)C(=O)N[C@H](Cc1ccccc1)C(=O)N[C@H](CCCNC(=N)N)C(=O)N[C@H](CCCNC(=N)N)C(N)=O` [D-CONGA-ΔA10] (H-[dR][dR][dW][dA][dR][dR][dL][dA][dF][dF][dR][dR]-NH2; N-terminus and C-terminus assumed), the “Hemolysis at 100 μM (fractional hemolysis)” value in the data set on human RBCs is reported as 0.02. In addition, in data set [5], the pEC50 is 3.59.
The corresponding values for `CC(C)C[C@@H](NC(=O)[C@@H](CCCCNC(=N)N)NC(=O)[C@@H](CCCCNC(=N)N)NC(=O)[C@@H](C)NC(=O)[C@@H](Cc1c[nH]c2ccccc12)NC(=O)[C@@H](CCCNC(=N)N)NC(=O)[C@H](N)CCCNC(=N)N)C(=O)N[C@H](C)C(=O)N[C@H](Cc1ccccc1)C(=O)N[C@H](C)C(=O)N[C@H](Cc1ccccc1)C(=O)N[C@H](CCCNC(=N)N)C(=O)N[C@H](CCCNC(=N)N)C(N)=O` [D-CONGA-HomoR] (H-[dR][dR][dW][dA][d(hArg)][d(hArg)][dL][dA][dF][dA][dF][dR][dR]-NH2; N-terminus and C-terminus assumed) are 0.06 and 3.84.
The corresponding values for `CC(C)C[C@@H](NC(=O)[C@@H](CCCNC(=N)N)NC(=O)[C@H](N)CCCNC(=N)N)C(=O)N[C@H](C)C(=O)N[C@H](Cc1ccccc1)C(=O)N[C@H](C)C(=O)N[C@H](Cc1ccccc1)C(=O)N[C@H](CCCNC(=N)N)C(=O)N[C@H](CCCNC(=N)N)C(=O)N[C@H](Cc1c[nH]c2ccccc12)C(=O)N[C@H](C)C(=O)N[C@H](CCCNC(=N)N)C(=O)N[C@H](CCCNC(=N)N)C(N)=O` [D-CONGA-FLIP] (H-[dR][dR][dL][dA][dF][dA][dF][dR][dR][dW][dA][dR][dR]-NH2; N-terminus and C-terminus assumed) are 0.05 and 3.84.
The corresponding values for `CC(C)C[C@@H](NC(=O)[C@@H](CCCNC(=N)N)NC(=O)[C@@H](CCCNC(=N)N)NC(=O)[C@@H](Cc1c[nH]c2ccccc12)NC(=O)[C@@H](CCCNC(=N)N)NC(=O)[C@H](N)CCCNC(=N)N)C(=O)N[C@H](C)C(=O)N[C@H](Cc1ccccc1)C(=O)N[C@H](C)C(=O)N[C@H](Cc1ccccc1)C(=O)N[C@H](CCCNC(=N)N)C(=O)N[C@H](CCCNC(=N)N)C(N)=O` [D-CONGA-ΔA4] (H-[dR][dR][dW][dR][dR][dL][dA][dF][dA][dF][dR][dR]-NH2; N-terminus and C-terminus assumed) are 0.02 and 3.84.
As to `CC1(C)S[C@@H]2[C@H](NC(=O)[C@H](N)c3ccccc3)C(=O)N2[C@H]1C(=O)O` [AMP, ampicillin], the MIC in data set [1] was over 150 µM; in data set [2], over 150 µM; in data set [3] (read-out: MIC, PA(mucoid)) it was over 150 µM; in data set [3] (read-out: MIC, PA(non-mucoid)), over 150 µM; in data set [6] it was over 150 µM.
